Data published in patent US20100022559A1, “BISOXIMES AS FUNGICIDES” (BAYER CROPSCIENCE AG, priority 2006, published 2010).

Assay: logP determination by HPLC on a reversed-phase column (C 18), EEC Directive 79/831 Annex V.A8
Format: physicochemical
Conditions: method marked [b] in Table 1
Experimental: The stated logP values were determined in accordance with EEC Directive 79/831 Annex V.A8 by HPLC (high performance liquid chromatography) on a reversed-phase column (C 18). Temperature: 43° C.

Row | logP | SMILES
1 | 3.25^[b] | Cc1nc(/C(N)=N/OCc2ccccc2CO/N=C(\N)c2nc(C)c3c(n2)CCCC3)nc2c1CCCC2 [compound 707]
2 | 2.16^[b] | COCc1nc(/C(N)=N/OCc2ccccc2CO/N=C(\N)c2nc(COC)c(C)c(COC)n2)nc(COC)c1C [compound 708]
3 | 3.41^[b] | Cc1nc(/C(N)=N/OCc2ccccc2CO/N=C(\N)c2nc(C)c(Cl)c(C)n2)nc(C)c1Cl [compound 709]
4 | 3.68^[b] | Cc1cc(C)cc(/C(N)=N/OCc2ccccc2CO/N=C(\N)c2cc(C)cc(C)c2)c1 [compound 710]
5 | 3.85^[b] | N/C(=N\OCc1ccccc1CO/N=C(\N)c1nc(C2CC2)cc(C2CC2)n1)c1nc(C2CC2)cc(C2CC2)n1 [compound 711]
6 | 3.09^[b] | Cc1nc(/C(N)=N/OCc2cccc(CO/N=C(\N)c3nc(C)c4c(n3)CCCC4)c2)nc2c1CCCC2 [compound 712]
7 | 2.06^[b] | COCc1nc(/C(N)=N/OCc2cccc(CO/N=C(\N)c3nc(COC)c(C)c(COC)n3)c2)nc(COC)c1C [compound 713]
8 | 2.96^[b] | N/C(=N\OCc1cccc(CO/N=C(\N)c2ncc(F)cc2F)c1)c1ncc(F)cc1F [compound 714]
9 | 3.29^[b] | Cc1nc(/C(N)=N/OCc2cccc(CO/N=C(\N)c3nc(C)c(Cl)c(C)n3)c2)nc(C)c1Cl [compound 715]
10 | 3.76^[b] | N/C(=N\OCc1cccc(CO/N=C(\N)c2nc(C3CC3)cc(C3CC3)n2)c1)c1nc(C2CC2)cc(C2CC2)n1 [compound 716]
11 | 3.09^[b] | Cc1nc(/C(N)=N/OCc2ccc(CO/N=C(\N)c3nc(C)c4c(n3)CCCC4)cc2)nc2c1CCCC2 [compound 717]
12 | 2.96^[b] | N/C(=N\OCc1ccc(CO/N=C(\N)c2ncc(F)cc2F)cc1)c1ncc(F)cc1F [compound 719]
13 | 3.76^[b] | N/C(=N\OCc1ccc(CO/N=C(\N)c2nc(C3CC3)cc(C3CC3)n2)cc1)c1nc(C2CC2)cc(C2CC2)n1 [compound 720]
14 | 2.51^[b] | Cc1nc(/C(N)=N/OC/C=C/CO/N=C(\N)c2nc(C)c3c(n2)CCCC3)nc2c1CCCC2 [compound 721]
15 | 3.13^[b] | N/C(=N\OC/C=C/CO/N=C(\N)c1nc(C2CC2)cc(C2CC2)n1)c1nc(C2CC2)cc(C2CC2)n1 [compound 722]
16 | 2.42^[b] | N/C(=N\OC/C=C/CO/N=C(\N)c1ncc(F)cc1F)c1ncc(F)cc1F [compound 723]
17 | 3.72^[b] | Cc1cc(C)nc(/C(N)=N/OCc2ccccc2CO/N=C(\N)c2cc(C)cc(C)n2)c1 [compound 724]
18 | 3.63^[b] | Cc1cc(C)nc(/C(N)=N/OCc2cccc(CO/N=C(\N)c3cc(C)cc(C)n3)c2)c1 [compound 726]

Row | logP | SMILES
19 | 3.13^[b] | CC(=NOc1ncnc(ON=C(C)c2cccc(C)n2)c1F)c1cccc(C)n1 [compound 727]
20 | 2.34^[b] | CC(=NOc1ncnc(ON=C(C)c2cccc(C)n2)c1C)c1cccc(C)n1 [compound 728]
21 | 3.31^[b] | CC(=NOc1ncnc(ON=C(C)c2cccc(C)n2)c1Cl)c1cccc(C)n1 [compound 729]
22 | 5.71^[b] | CC(=NOCc1ccccc1CON=C(C)c1nc(C)c(C)s1)c1nc(C)c(C)s1 [compound 730]
23 | 3.72^[b] | CC(=NOCc1cccc(CON=C(C)c2ccccn2)c1)c1ccccn1 [compound 731]
24 | 5.71^[b] | CC(=NOCc1cccc(CON=C(C)c2nc(C)c(C)s2)c1)c1nc(C)c(C)s1 [compound 732]
25 | 3,59^[b] | Cc1cc(C)nc(/C(N)=N/OCc2ccc(CO/N=C(\N)c3cc(C)cc(C)n3)cc2)c1 [compound 733]
26 | 3.76^[b] | CC(=NOCc1ccc(CON=C(C)c2ccccn2)cc1)c1ccccn1 [compound 734]
27 | 2.80^[b] | Cc1cccc(C=NOCc2ccc(CON=Cc3cccc(C)n3)cc2)n1 [compound 735]
28 | 5.84^[b] | CC(=NOCc1ccc(CON=C(C)c2nc(C)c(C)s2)cc1)c1nc(C)c(C)s1 [compound 736]
29 | 2.18^[b] | Cc1cccc(C=NOCC=CCON=Cc2cccc(C)n2)n1 [compound 737]
30 | 2.18^[b] | CCC(=NOc1ncnc(ON=C(C)c2cccc(C)n2)c1C)c1ncccc1C [compound 739]
31 | 2.30^[b] | CC(=NOCc1cccc(CON=C(C)c2ccc(C)c(C)n2)n1)c1ccc(C)c(C)n1 [compound 741]
32 | 4.49^[b] | CCC(CC)(C(=O)ON=C(C)c1cccc(C)n1)C(=O)ON=C(C)c1cccc(C)n1 [compound 745]
33 | 4.41^[b] | C=C(CON=C(Br)c1cccc(C)n1)CON=C(Br)c1cccc(C)n1 [compound 746]
34 | 4.43^[b] | CC(=NOCCC(C)CCON=C(C)c1ccccn1)c1ccccn1 (stereo not shown) [compound 747]
35 | 7.36^[b] | CC(=NOCC(C)CON=C(C)c1ccc2ccc(C)cc2n1)c1ccc2ccc(C)cc2n1 (stereo not shown) [compound 748]
36 | 7.36^[b] | C=C(CON=C(C)c1ccc2ccc(C)cc2n1)CON=C(C)c1ccc2ccc(C)cc2n1 [compound 749]

Row | SMILES | logP
37 | CC(=NOC(=O)N(C)C(=O)ON=C(C)c1cccc(C)n1)c1cccc(C)n1 [compound 744] | 2.57^[b]

Same assay, conditions: method marked [c] in Table 1

Row | logP | SMILES
38 | 3.45^[c] | CC(=NOc1ncnc(ON=C(C)c2cccc(C)n2)c1C)c1cccc(C)n1 [compound 728]
39 | 5.08^[c] | CC(=NOCc1cccc(CON=C(C)c2ccc(C)c(C)n2)n1)c1ccc(C)c(C)n1 [compound 741]
40 | 4.96^[c] | CC(=NOCc1cccc(CON=C(C)c2cc(C)cc(C)n2)n1)c1cc(C)cc(C)n1 [compound 742]
41 | 7.36^[c] | CC(=NOCC(C)CON=C(C)c1ccc2ccc(C)cc2n1)c1ccc2ccc(C)cc2n1 (stereo not shown) [compound 748]
42 | 7.36^[c] | C=C(CON=C(C)c1ccc2ccc(C)cc2n1)CON=C(C)c1ccc2ccc(C)cc2n1 [compound 749]

Same assay, conditions: value marked [a]

Row | logP | SMILES
43 | 7.36^[a] | CC(=NOCC(C)CON=C(C)c1cc(Cl)cc(C)n1)c1cc(Cl)cc(C)n1 (stereo not shown) [compound 792]
44 | 4.62^[a] | C=C(CON=C(Cl)c1cc(C)cc(C)n1)CON=C(Cl)c1cc(C)cc(C)n1 [compound 795]
45 | 7.36^[a] | CC(=NOCC(C)(C)CON=C(C)c1cc(Cl)cc(C)n1)c1cc(Cl)cc(C)n1 [compound 804]
46 | 7.02^[a) | CC(=NOCC1(CON=C(C)c2cc(Cl)cc(C)n2)CC1)c1cc(Cl)cc(C)n1 [compound 805]
47 | 2.38^[a] | C=C(CON=C(C)c1cccc(C)n1)CON=C(N)c1ccc(C)c(C)n1 [compound 808]
48 | 7.36^[a] | CC(=NOCC(C)(C)CON=C(C)c1cccc(C2CC2)n1)c1cccc(C2CC2)n1 [compound 814]
49 | 7.36^[a] | CC(=NOCC(C)CON=C(C)c1cccc(C2CC2)n1)c1cccc(C2CC2)n1 (stereo not shown) [compound 815]
50 | 4.9^[a] | C=C(CON=C(SCCC)c1cccc(C)n1)CON=C(SCCC)c1cccc(C)n1 [compound 819]
51 | 4.12^[a] | C=C(CON=C(Cl)c1cccc(C)n1)CON=C(Cl)c1ccc(C)c(C)n1 [compound 822]
52 | 4.20^[a] | Cc1cccc(C(C#N)=NOCC(C)CON=C(C#N)c2cccc(C)n2)n1 (stereo not shown) [compound 827]
53 | 4.20^[a] | C=C(CON=C(C#N)c1cccc(C)n1)CON=C(C#N)c1ccc(C)c(C)n1 [compound 828]
54 | 4.50^[a] | C=C(CON=C(C#N)c1cc(C)cc(C)n1)CON=C(C#N)c1cc(C)cc(C)n1 [compound 830]
55 | 4.06^[a] | C=C(CON=C(N)c1ccc(C)c(C)n1)CON=C(Cl)c1cccc(C)n1 [compound 831]
56 | 7.36^[a] | CC(=NOCCC(C)CCON=C(C)c1ccc(C(F)(F)F)cn1)c1ccc(C(F)(F)F)cn1 (stereo not shown) [compound 832]
57 | 4.17^[a] | Cc1cc(C)nc(C(Cl)=NOCC(C)CON=C(Cl)c2cc(C)cc(C)n2)c1 (stereo not shown) [compound 833]
58 | 3.21^[a] | CC(=NOCC(C)CON=C(C)c1cc(C2CC2)cc(C)n1)c1cccc(C)n1 (stereo not shown) [compound 845]
59 | 5.23^[a] | CC(=NOCC(C)CON=C(C)c1cc(C2CC2)cc(C)n1)c1cc(Cl)cc(C)n1 (stereo not shown) [compound 846]
60 | 2.04^[a] | CC(=NOC(=O)NCCCCNC(=O)ON=C(C)c1ccc(C)c(C)n1)c1ccc(C)c(C)n1 [compound 851]
61 | 1.63^[a] | CC(=NOC(=O)NCCCCNC(=O)ON=C(C)c1cc(C)cc(C)n1)c1cc(C)cc(C)n1 [compound 852]

Same assay, conditions: value marked [b]

Row | logP | SMILES
62 | 1.75^[b] | Cc1cc(C)nc(C(N)=NOC/C=C\CON=C(N)c2nc(C)cc(C)n2)n1 [compound 773]
63 | 2.70^[b] | Cc1nc(C(N)=NOC/C=C/CON=C(N)c2nc(C)c(Cl)c(C)n2)nc(C)c1Cl [compound 774]
64 | 2.77^[b] | Cc1nc(C(N)=NOC/C=C\CON=C(N)c2nc(C)c(Cl)c(C)n2)nc(C)c1Cl [compound 775]
65 | 2.16^[b] | Cc1cccc(C=NOCCCCON=Cc2cccc(C)n2)n1 [compound 776]
66 | 3.31^[b] | CC(=NOC/C=C\CON=C(C)c1cccc(C)n1)c1cccc(C)n1 [compound 778]
67 | 2.84^[b] | CC(=NOC/C=C/CON=C(C)c1ccccn1)c1ccccn1 [compound 781]
68 | 3.07^[b] | C=C(CON=C(C#CC)c1cccc(C)n1)CON=C(C#CC)c1cccc(C)n1 [compound 803]
69 | 5.24^[b] | CCC(CC)(CON=C(C)c1nc(C)ccc1C)CON=C(C)c1nc(C)ccc1C [compound 812]
70 | 7.36^[b] | COc1c(Cl)cc(C(C)=NOCC(C)CON=C(C)c2cc(Cl)c(OC)c(C)n2)nc1C (stereo not shown) [compound 839]
71 | 1.93^[b] | CC(=NOCC1(CON=C(C)c2cccc(NCC3CC3)n2)CC1)c1cccc(NCC2CC2)n1 [compound 849]
72 | 2.28^[b] | CC(=NOCC1(CON=C(C)c2cccc(NCC3CC3)n2)CCC1)c1cccc(NCC2CC2)n1 [compound 850]
73 | 4.06^[b] | CCOC(=O)C(C)(CON=C(C)c1cccc(C)n1)CON=C(C)c1cccc(C)n1 (stereo not shown) [compound 853]
74 | 3.85^[b] | CCOC(=O)C(C)(CON=C(C)c1ccc(C)c(C)n1)CON=C(C)c1ccc(C)c(C)n1 (stereo not shown) [compound 854]
75 | 2.79^[b] | CCOC(=O)C(C)(CON=C(C)c1cc(C)cc(C)n1)CON=C(C)c1cc(C)cc(C)n1 (stereo not shown) [compound 855]
76 | 1.99^[b] | CC(=NOCC1(CON=C(C)c2cccc(C)n2)COC(=O)N1)c1cccc(C)n1 (stereo not shown) [compound 856]

Same assay, conditions: value marked [c]

Row | logP | SMILES
77 | 7.36^[c] | CC(=NOCC(C)CON=C(C)c1cc(Cl)cc(C)n1)c1cc(Cl)cc(C)n1 (stereo not shown) [compound 792]
78 | 6.66^[c] | CCC(CC)(CON=C(C)c1nc(C)ccc1C)CON=C(C)c1nc(C)ccc1C [compound 812]
79 | 7.36^[c] | COc1c(Cl)cc(C(C)=NOCC(C)CON=C(C)c2cc(Cl)c(OC)c(C)n2)nc1C (stereo not shown) [compound 839]
80 | 6.40^[c] | CC(=NOCC(C)CON=C(C)c1cc(C2CC2)cc(C)n1)c1cccc(C)n1 (stereo not shown) [compound 845]
81 | 7.36^[c] | CC(=NOCC(C)CON=C(C)c1cc(C2CC2)cc(C)n1)c1cc(Cl)cc(C)n1 (stereo not shown) [compound 846]
82 | 5.00^[c] | CCOC(=O)C(C)(CON=C(C)c1cccc(C)n1)CON=C(C)c1cccc(C)n1 (stereo not shown) [compound 853]
83 | 5.82^[c] | CCOC(=O)C(C)(CON=C(C)c1ccc(C)c(C)n1)CON=C(C)c1ccc(C)c(C)n1 (stereo not shown) [compound 854]
84 | 5.72^[c] | CCOC(=O)C(C)(CON=C(C)c1cc(C)cc(C)n1)CON=C(C)c1cc(C)cc(C)n1 (stereo not shown) [compound 855]
85 | 2.97^[c] | CC(=NOCC1(CON=C(C)c2cccc(C)n2)COC(=O)N1)c1cccc(C)n1 (stereo not shown) [compound 856]
